The values that follow come from ChEMBL document CHEMBL3734664, “Noncovalent Mutant Selective Epidermal Growth Factor Receptor Inhibitors: A Lead Optimization Case Study” (J Med Chem, 2015).

Usually clearance stands for a measure of how efficiently the substance is removed, as volume per time. One may read the logD as lipophilicity at a set pH, counting ionised and neutral species. By EC50 is commonly meant the concentration needed to bring the measured effect to its halfway point. Low values mean greater potency, high ones weaker potency. As usually defined, the Papp A→B is how fast a substance crosses the layer from the apical side. In general, bioavailability refers to the share of a dose that reaches the circulation, judged against a reference dose that is usually intravenous. Higher therefore signals much systemic uptake. In general, IC50 refers to the concentration that gives 50% inhibition. Low readings indicate inhibition by little substance, high ones a need for much substance. Usually fraction unbound stands for free concentration divided by total concentration. What is called inhibition in vivo is the relative decrease from the control value, in per cent. A word on the half-life: it is the time needed for the level to fall by half in the phase considered.

A short description of series [1]: Chemical stability under acidic conditions assessed as amide hydrolysis to acid form. It counts as physicochemical.
Series [2] can be described thus: Plasma clearance in rat at 0.5 mg/kg, iv. It counts as ADME, organism-based.
The test system of series [3] is Rattus norvegicus. The experiment in a line: Unbound plasma clearance in rat at 0.5 mg/kg, iv. It counts as ADME, organism-based. The following applies: in vivo.
Series [4] addresses Epidermal growth factor receptor (Homo sapiens, UniProt P00533, L858R/T790M).
The target in series [5] is T1, Epidermal growth factor receptor (Homo sapiens, UniProt P00533).
Another series is described as follows: physchem. The following applies: buffer, pH 7.4, logD.
For series [6], the system named is Hepatocyte. Description: Stability in human hepatocytes. It counts as ADME, cell-based.
Series [7] in a line: Plasma clearance in rat at 5 mg/kg, iv. It counts as ADME, organism-based.
Series [8] concerns Rattus norvegicus. Description: Unbound plasma clearance in rat at 5 mg/kg, iv. The following applies: in vivo. It counts as ADME, organism-based.
The test system of the next series is NCI-H1975. The experiment in a line: Antiproliferative activity against human NCI-H1975 cells expressing EGFR T790M/L858R double mutant after 72 hrs by luminescence assay. It counts as functional, cell-based. The following applies: NCI-H1975, 72 h.
For another series, the species on record is Homo sapiens. Description: Selectivity ratio of Ki for human wild type EGFR to Ki for human EGFR T790M/L858R double mutant.
The nature of series [9]: Kinetic solubility of compound in PBS at pH 7.4 at 100 uM after 24 hrs. It counts as physicochemical. The following applies: read-out: Kinetic_solubility.
Series [10] is described as follows: Apparent permeability from apical to basolateral side in MDCK cells. The following applies: dog. It counts as ADME, cell-based, Canis lupus familiaris.
The nature of series [11]: Oral bioavailability in rat at 10 mg/kg. It counts as ADME, organism-based. The following applies: in vivo.
The target in series [12] is T1, Epidermal growth factor receptor. The source holds these as a separate data set.
Description: Inhibition of EGFR phosphorylation in human NCI-H292 cells preincubated for 1 hr followed by stimulation with EGF for 8 mins by electrochemiluminescent immunoassay
A short description of series [13]: Unbound fraction in mouse plasma. It counts as ADME, cell-free.
Series [14] has as its target T2, Epidermal growth factor receptor (Homo sapiens, UniProt P00533, 746-750DEL/T790M). The experiment in a line: Inhibition of human EGFR T790M/del (746 to 750) deletion mutant using Fl-EEPLYWSFPAKKK-CONH2 as substrate preincubated for 30 mins followed by addition of substrate measured after 30 mins by Morrison plot analysis. It counts as protein assay. The following applies: read-out: Ki(app).

A further series has as its system Liver microsome. The experiment in a line: Drug level in rat liver microsomes treated with (R)-1-[6-[2-(cis-3-Fluoro-4-methoxypiperidin-1-yl)pyrimidin-4-ylamino]-1-((S)-2,2,2-trifluoro-1-methylethyl)-1H-imidazo[4,5-c]pyridin-2-yl]ethanol. It counts as ADME. In general terms: Liver microsomes are a subcellular fraction often used to study metabolism.
Series [15] deals with Hepatocyte. The experiment in a line: Drug level in rat hepatocytes treated with (R)-1-[6-[2-(cis-3-Fluoro-4-methoxypiperidin-1-yl)pyrimidin-4-ylamino]-1-((S)-2,2,2-trifluoro-1-methylethyl)-1H-imidazo[4,5-c]pyridin-2-yl]ethanol. It counts as ADME, cell-based.
Series [16] has as its system Mus musculus. The experiment in a line: In vivo inhibition of EGFR phosphorylation in human NCI-H1975 cells xenografted in SCID mouse at 300 mg/kg, po qd everyday for 3 days measured 2 to 8 hrs post last dose by electrochemiluminescent immunoassay. It counts as functional. (In general: In xenograft studies the graft and the host belong to different species.)
Series [17] relates to Mus musculus. Description: In vivo inhibition of EGFR in human NCI-H1975 cells xenografted in SCID mouse assessed as suppression of ERK phosphorylation at 300 mg/kg, po qd everyday for 3 days measured 2 to 8 hrs post last dose by electrochemiluminescent immunoassay. It counts as functional.
Series [18] concerns Mus musculus. Description: In vivo inhibition of EGFR in human NCI-H1975 cells xenografted in SCID mouse assessed as suppression of AKT phosphorylation at 300 mg/kg, po qd everyday for 3 days measured 2 to 8 hrs post last dose by electrochemiluminescent immunoassay. It counts as functional.
In series [19] the test system is Mus musculus. Description: In vivo inhibition of EGFR in human NCI-H1975 cells xenografted in po dosed SCID mouse assessed as suppression of ERK phosphorylation administered as qd everyday for 3 days measured 2 to 8 hrs post last dose by electrochemiluminescent immunoassay. It counts as functional.
Series [20] concerns Mus musculus. Description: In vivo inhibition of EGFR in human NCI-H1975 cells xenografted in po dosed SCID mouse assessed as suppression of AKT phosphorylation administered as qd everyday for 3 days measured 2 to 8 hrs post last dose by electrochemiluminescent immunoassay. It counts as functional.
A further series concerns NCI-H292. The experiment in a line: Antiproliferative activity against human NCI-H292 cells expressing wild type EGFR after 72 hrs by luminescence assay. The following applies: NCI-H292, 72 h. It counts as functional, cell-based.
Series [21] in a line: Antiproliferative activity against erlotinib-resistant human PC9 cells expressing EGFR with ex19del and T790M mutations after 72 hrs by luminescence assay. The following applies: PC-9, 72 h. It counts as functional, cell-based.
Series [22] can be described thus: Half life in rat. It counts as ADME, organism-based. The following applies: in vivo.
Series [23] can be described thus: Volume of distribution at steady state in rat. It counts as ADME, organism-based. The following applies: in vivo, read-out: Vdss.
A short description of series [24]: Oral bioavailability in rat. It counts as ADME, organism-based. The following applies: in vivo.
The target in series [25] is T2, Epidermal growth factor receptor. The experiment in a line: Inhibition of EGFR T790M/del (746 to 750) deletion mutant phosphorylation in erlotinib-resistant human PC9 cells preincubated for 1 hr followed by stimulation with EGF for 8 mins by electrochemiluminescent immunoassay. It counts as cell-based, PC-9.

Structures are written as SMILES. Converted amounts (≈) assume the structure as drawn.

T1 sequence (P00533 whole entry): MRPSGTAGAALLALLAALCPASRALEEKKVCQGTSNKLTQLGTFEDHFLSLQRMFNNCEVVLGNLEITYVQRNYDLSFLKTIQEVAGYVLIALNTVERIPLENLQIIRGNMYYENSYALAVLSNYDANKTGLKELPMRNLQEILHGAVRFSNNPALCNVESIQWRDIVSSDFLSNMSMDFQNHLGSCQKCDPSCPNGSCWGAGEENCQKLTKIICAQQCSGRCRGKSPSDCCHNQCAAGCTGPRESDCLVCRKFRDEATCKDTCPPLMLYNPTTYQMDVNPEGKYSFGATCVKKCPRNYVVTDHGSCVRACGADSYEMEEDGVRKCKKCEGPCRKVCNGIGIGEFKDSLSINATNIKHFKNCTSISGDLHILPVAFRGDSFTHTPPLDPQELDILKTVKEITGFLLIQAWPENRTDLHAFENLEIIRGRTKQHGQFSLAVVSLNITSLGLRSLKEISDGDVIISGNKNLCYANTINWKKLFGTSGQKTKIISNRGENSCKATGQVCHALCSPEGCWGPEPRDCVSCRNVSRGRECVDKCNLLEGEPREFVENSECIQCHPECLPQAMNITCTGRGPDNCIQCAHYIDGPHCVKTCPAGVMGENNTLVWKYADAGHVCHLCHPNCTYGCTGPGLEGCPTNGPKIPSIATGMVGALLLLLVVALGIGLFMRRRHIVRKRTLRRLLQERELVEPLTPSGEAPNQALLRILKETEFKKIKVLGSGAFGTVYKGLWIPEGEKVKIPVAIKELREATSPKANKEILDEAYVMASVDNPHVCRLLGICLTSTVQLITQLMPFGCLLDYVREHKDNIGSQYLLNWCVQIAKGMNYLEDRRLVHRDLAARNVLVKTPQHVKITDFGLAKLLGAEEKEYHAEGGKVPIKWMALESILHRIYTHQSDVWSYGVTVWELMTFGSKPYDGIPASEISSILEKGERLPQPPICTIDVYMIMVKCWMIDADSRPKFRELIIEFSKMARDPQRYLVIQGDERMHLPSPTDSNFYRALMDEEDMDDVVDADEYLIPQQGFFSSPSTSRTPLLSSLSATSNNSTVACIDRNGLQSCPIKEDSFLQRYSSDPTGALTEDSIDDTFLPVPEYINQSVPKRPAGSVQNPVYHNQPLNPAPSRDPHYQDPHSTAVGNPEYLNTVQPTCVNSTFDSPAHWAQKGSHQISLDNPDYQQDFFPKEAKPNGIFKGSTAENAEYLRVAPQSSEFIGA
Sequence of Epidermal growth factor receptor (Homo sapiens, UniProt P00533, L858R/T790M) (P00533 25-1210 T790M/L858R limits assumed): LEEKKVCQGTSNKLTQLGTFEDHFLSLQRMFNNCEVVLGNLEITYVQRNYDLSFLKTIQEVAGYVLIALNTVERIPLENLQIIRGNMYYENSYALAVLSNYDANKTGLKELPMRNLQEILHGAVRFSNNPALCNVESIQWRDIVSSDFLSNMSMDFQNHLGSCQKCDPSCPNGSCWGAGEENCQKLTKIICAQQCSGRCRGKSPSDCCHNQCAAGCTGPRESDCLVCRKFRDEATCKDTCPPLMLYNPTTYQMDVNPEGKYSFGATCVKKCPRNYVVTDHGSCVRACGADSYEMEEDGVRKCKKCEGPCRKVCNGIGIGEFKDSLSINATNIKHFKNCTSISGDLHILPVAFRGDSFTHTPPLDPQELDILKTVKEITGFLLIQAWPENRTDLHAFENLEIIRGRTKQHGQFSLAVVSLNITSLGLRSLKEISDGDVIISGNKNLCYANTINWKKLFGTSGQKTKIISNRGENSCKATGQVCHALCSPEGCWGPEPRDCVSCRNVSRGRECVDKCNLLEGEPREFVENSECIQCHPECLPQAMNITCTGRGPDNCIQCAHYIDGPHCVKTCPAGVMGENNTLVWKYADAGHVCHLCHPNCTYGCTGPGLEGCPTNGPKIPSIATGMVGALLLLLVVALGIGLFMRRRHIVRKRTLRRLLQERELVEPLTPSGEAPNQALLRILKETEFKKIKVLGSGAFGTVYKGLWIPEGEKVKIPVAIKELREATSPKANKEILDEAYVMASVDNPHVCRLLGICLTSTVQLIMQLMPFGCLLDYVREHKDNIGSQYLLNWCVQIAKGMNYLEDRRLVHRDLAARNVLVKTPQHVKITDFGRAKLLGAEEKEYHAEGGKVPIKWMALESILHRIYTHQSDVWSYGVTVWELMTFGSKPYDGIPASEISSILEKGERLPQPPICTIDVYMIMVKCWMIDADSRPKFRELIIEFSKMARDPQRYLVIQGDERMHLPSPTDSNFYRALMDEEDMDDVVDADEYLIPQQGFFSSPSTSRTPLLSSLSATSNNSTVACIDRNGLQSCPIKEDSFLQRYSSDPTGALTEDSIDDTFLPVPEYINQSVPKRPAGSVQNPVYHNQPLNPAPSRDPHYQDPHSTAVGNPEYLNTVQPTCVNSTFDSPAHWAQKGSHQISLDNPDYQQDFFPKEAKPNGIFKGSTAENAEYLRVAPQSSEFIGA
T2 sequence (P00533 whole entry, looked up, stated change not applied): as the sequence (P00533 whole entry) above
Description for physchem: Lipophilicity, log D of the compound at pH 7.4 by microscale shake flask method

`Cc1nc2cnc(Nc3ccnc(NCC(C)(C)C(N)=O)n3)cc2n1C(C)C`: the Stability result in series [1] is given as “Unstable”. The compound also registered a clearance in [2] of 250 mL/min/kg. In the series with Rattus norvegicus [3], this compound had a CL free of 909 mL/min/kg. Moreover, the figures for the Ki in series [4] and in series [5] were 22 nM and 390 nM, respectively. Further, in the series “physchem”, the logD came to 1.5.
For the compound `COC1CCN(c2nccc(Nc3cc4c(cn3)nc(C)n4C(C)C)n2)CC1`, in the series with Hepatocyte [6], the Stability result is given as “Stable”. The same compound gave a clearance in series [7] of 40 mL/min/kg. The compound further yielded a CL free with Rattus norvegicus [8] of 620 mL/min/kg. For the same compound, a half-maximal effect with NCI-H1975 (EC50) was put at 6700 nM. In the series filed under Homo sapiens, the Ratio Ki was found to be 46. The solubility kinetic at 24 h, 100 µM in [9] was found to be 87 µM (≈ 33.2 µg/mL). Further, the Papp A→B in series [10] amounted to 29 ×10⁻⁶ cm/s. In addition, the bioavailability in [11] is 30%. Further, the Ki in series [4] came to 19 nM; in series [5], 875 nM. In [12], this compound returned an IC50 above 10000 nM. In addition, the logD in “physchem” worked out at 2.4.
Turning to `C[C@@H](O)c1nc2cnc(Nc3ccnc(N4CC[C@H](O)[C@H](F)C4)n3)cc2n1[C@H](C)C(F)(F)F`, the fraction unbound in series [13] is 0.207. Also, the Ki is 6 nM in series [14], 2.5 nM in series [4] and 313 nM in [5]. Further, in [7], the clearance worked out at 71 mL/min/kg. In the series with Rattus norvegicus [8], this compound returned a CL free of 348 mL/min/kg. The Drug metabolism entry in the series on Liver microsome and in the series on Hepatocyte [15] was “metabolite_detected” each time. Further, the inhibition in vivo at 300 mg/kg in the series on Mus musculus [16] is above 90%; with Mus musculus [17] it was above 90%; with Mus musculus [18] it was above 65%. The fEC50 with Mus musculus [19] was determined as 0.3 µM; in the series with Mus musculus [20] it was 0.5 µM. Further, the EC50 in the series on NCI-H1975 was 868 nM; in the series on NCI-H292, above 10000 nM; in [21], 170 nM. This compound had a half-life in series [22] of 42.6 min. The Vd in [23] was determined as 3.5 L/kg. In series [24], the bioavailability turned out to be 29%. For the same compound, the IC50 is 81 nM in series [25] and above 10000 nM in series [12]. The same compound displayed a logD in “physchem” of 1.8.
